Assay results as given in patent publication US10233173B2, “Substituted 1,2,3-triazoles as NR2B-selective NMDA modulators” (JANSSEN PHARMACEUTICA NV, priority 2016, dated 2019).

biological target: human GluN1/GluN2B NMDA receptors (Homo sapiens, UniProt Q05586+Q13224); experiment: Cell-based calcium flux (FLIPR) assay on cloned human NR1/NR2B ion channels expressed in mammalian cells; settings: standard assay; human GluN1/GluN2B, calcium flux (FLIPR), glutamate ~EC80
Method in brief: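 Calcium influx followed by FLIPR fluorescence after 5 min compound exposure and a further 5 min co-agonist challenge: 10 μM glycine with glutamate at ~EC80 (standard) or EC40 (HTS).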

Sequence of human GluN1/GluN2B NMDA receptors (Q13224 27-1484, other chains not shown): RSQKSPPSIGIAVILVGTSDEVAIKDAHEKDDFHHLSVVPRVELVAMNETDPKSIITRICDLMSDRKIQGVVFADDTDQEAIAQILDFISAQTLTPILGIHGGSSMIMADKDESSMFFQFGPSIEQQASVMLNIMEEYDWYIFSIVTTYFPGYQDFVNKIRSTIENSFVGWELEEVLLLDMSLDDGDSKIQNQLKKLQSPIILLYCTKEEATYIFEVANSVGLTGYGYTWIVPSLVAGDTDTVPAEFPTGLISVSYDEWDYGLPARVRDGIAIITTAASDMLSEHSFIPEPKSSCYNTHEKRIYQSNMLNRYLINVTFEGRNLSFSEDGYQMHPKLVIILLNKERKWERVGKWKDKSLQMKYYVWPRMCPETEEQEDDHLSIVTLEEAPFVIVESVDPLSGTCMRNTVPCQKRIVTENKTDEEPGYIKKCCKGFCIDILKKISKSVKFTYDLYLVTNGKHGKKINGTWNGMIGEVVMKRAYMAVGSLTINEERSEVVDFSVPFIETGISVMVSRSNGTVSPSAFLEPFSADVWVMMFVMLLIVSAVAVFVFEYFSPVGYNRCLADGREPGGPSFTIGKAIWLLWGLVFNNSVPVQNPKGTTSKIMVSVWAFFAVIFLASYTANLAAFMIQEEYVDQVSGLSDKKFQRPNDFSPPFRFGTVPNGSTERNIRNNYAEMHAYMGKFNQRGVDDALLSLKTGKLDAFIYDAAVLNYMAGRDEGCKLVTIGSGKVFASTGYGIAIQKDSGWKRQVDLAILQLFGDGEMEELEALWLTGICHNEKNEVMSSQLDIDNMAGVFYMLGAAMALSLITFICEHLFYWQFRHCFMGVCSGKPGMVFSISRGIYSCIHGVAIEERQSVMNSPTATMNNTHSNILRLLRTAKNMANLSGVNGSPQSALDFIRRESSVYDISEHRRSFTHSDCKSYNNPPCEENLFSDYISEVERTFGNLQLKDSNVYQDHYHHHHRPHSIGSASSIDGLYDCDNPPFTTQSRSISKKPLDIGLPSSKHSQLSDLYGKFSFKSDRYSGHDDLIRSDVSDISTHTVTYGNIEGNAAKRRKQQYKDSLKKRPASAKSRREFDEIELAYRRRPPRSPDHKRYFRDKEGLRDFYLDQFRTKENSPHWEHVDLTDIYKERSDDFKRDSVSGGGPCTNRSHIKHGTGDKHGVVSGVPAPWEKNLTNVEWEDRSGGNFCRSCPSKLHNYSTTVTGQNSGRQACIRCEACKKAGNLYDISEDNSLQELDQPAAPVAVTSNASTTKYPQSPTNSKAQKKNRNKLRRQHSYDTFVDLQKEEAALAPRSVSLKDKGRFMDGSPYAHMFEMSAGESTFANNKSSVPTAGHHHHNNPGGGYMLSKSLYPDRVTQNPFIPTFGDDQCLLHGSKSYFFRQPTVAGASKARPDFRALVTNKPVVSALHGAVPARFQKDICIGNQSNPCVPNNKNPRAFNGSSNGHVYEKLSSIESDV

Point of comparison: `FC(F)c1cccc(-n2cc(COc3ncc(C4CC4)cn3)nn2)c1` [Example 282, 5-Cyclopropyl-2-[[1-[3-(difluoromethyl)phenyl]triazol-4-yl]methoxy]pyrimidine], IC50 0.011 µM. Against it:
- Cc1ccnc(OCc2cn(-c3cccc(C(F)F)c3)nn2)n1 [Example 268, 2-[[1-[3-(Difluoromethyl)phenyl]triazol-4-yl]methoxy]-4-methyl-pyrimidine] — 12-fold higher, 0.134 µM
- Fc1cnc(OCc2cn(-c3cccc(C(F)F)c3)nn2)nc1 [Example 269, 2-[[1-[3-(Difluoromethyl)phenyl]triazol-4-yl]methoxy]-5-fluoro-pyrimidine] — 30-fold higher, 0.325 µM
- CC(C)c1ccnc(OCc2cn(-c3cccc(C(F)F)c3)nn2)n1 [Example 270] — 56-fold higher, 0.617 µM
- COCc1ccnc(OCc2cn(-c3cccc(C(F)F)c3)nn2)n1 [Example 271] — 33-fold higher, 0.36 µM
- CC(C)(O)c1cnc(OCc2cn(-c3cccc(C(F)F)c3)nn2)nc1 [Example 272, 2-[2-[[1-[3-(Difluoromethyl)phenyl]triazol-4-yl]methoxy]pyrimidin-5-yl]propan-2-ol] — 16-fold higher, 0.173 µM
- FC(F)c1cnc(OCc2cn(-c3cccc(C(F)F)c3)nn2)nc1 [Example 273, 5-(Difluoromethyl)-2-[[1-[3-(difluoromethyl)phenyl]triazol-4-yl]methoxy]pyrimidine] — 2.5-fold higher, 0.027 µM
- FC(F)c1cccc(-n2cc(COc3nccc(C(F)F)n3)nn2)c1 [Example 274, 4-(Difluoromethyl)-2-[[1-[3-(difluoromethyl)phenyl]triazol-4-yl]methoxy]pyrimidine] — 74-fold higher, 0.813 µM
- FC(F)c1cccc(-n2cc(COc3ncc(C(F)(F)F)cn3)nn2)c1 [Example 275, 2-[[1-[3-(Difluoromethyl)phenyl]triazol-4-yl]methoxy]-5-(trifluoromethyl)pyrimidine] — 2.3-fold higher, 0.025 µM
- FC(F)Oc1cnc(OCc2cn(-c3cccc(C(F)F)c3)nn2)nc1 [Example 276, 5-(Difluoromethoxy)-2-[[1-[3-(difluoromethyl)phenyl]triazol-4-yl]methoxy]pyrimidine] — 2.8-fold higher, 0.031 µM
- CN(C)c1ccnc(OCc2cn(-c3cccc(C(F)F)c3)nn2)n1 [Example 277, 2-[[1-[3-(Difluoromethyl)phenyl]triazol-4-yl]methoxy]-N,N-dimethyl-pyrimidin-4-amine] — 3.7-fold higher, 0.041 µM
- Cc1nc(OCc2cn(-c3cccc(C(F)F)c3)nn2)ncc1F [Example 278, 2-[[1-[3-(Difluoromethyl)phenyl]triazol-4-yl]methoxy]-5-fluoro-4-methyl-pyrimidine] — 3.8-fold higher, 0.042 µM
- Cc1nc(OCc2cn(-c3cccc(C(F)F)c3)nn2)ncc1Cl [Example 279, 5-Chloro-2-[[1-[3-(difluoromethyl)phenyl]triazol-4-yl]methoxy]-4-methyl-pyrimidine] — 3.7-fold lower, 0.003 µM
- Cc1cnc(Cl)nc1OCc1cn(-c2cccc(C(F)F)c2)nn1 [Example 280, 2-Chloro-4-[[1-[3-(difluoromethyl)phenyl]triazol-4-yl]methoxy]-5-methyl-pyrimidine] — 16-fold higher, 0.173 µM
- Cc1cnc(OCc2cn(-c3cccc(C(F)F)c3)nn2)nc1N(C)C [Example 281, 2-[[1-[3-(Difluoromethyl)phenyl]triazol-4-yl]methoxy]-N,N,5-trimethyl-pyrimidin-4-amine] — 12-fold higher, 0.13 µM
- FC(F)c1cccc(-n2cc(COc3nccc(C4CC4)n3)nn2)c1 [Example 283, 4-Cyclopropyl-2-[[1-[3-(difluoromethyl)phenyl]triazol-4-yl]methoxy]pyrimidine] — 15-fold higher, 0.169 µM
- FC(F)c1cccc(-n2cc(COc3nccc(N4CCCC4)n3)nn2)c1 [Example 284, 2-[[1-[3-(Difluoromethyl)phenyl]triazol-4-yl]methoxy]-4-pyrrolidin-1-yl-pyrimidine] — 8.5-fold higher, 0.094 µM
- FC(F)c1cccc(-n2cc(COc3nccc(N4CCCCC4)n3)nn2)c1 [Example 285, 2-[[1-[3-(Difluoromethyl)phenyl]triazol-4-yl]methoxy]-4-(1-piperidyl)pyrimidine] — 27-fold higher, 0.299 µM
- Cc1cnc(OCc2cn(-c3cccc(C(F)(F)F)c3)nn2)nc1 [Example 286, 5-Methyl-2-[[1-[3-(trifluoromethyl)phenyl]triazol-4-yl]methoxy]pyrimidine] — within 1.5-fold, 0.012 µM
- CCc1cnc(OCc2cn(-c3cccc(C(F)(F)F)c3)nn2)nc1 [Example 287, 5-Ethyl-2-[[1-[3-(trifluoromethyl)phenyl]triazol-4-yl]methoxy]pyrimidine] — 2.2-fold lower, 0.005 µM
- CC(C)c1cnc(OCc2cn(-c3cccc(C(F)(F)F)c3)nn2)nc1 [Example 288, 5-Isopropyl-2-[[1-[3-(trifluoromethyl)phenyl]triazol-4-yl]methoxy]pyrimidine] — 3.6-fold higher, 0.04 µM
- FC(F)c1cnc(OCc2cn(-c3cccc(C(F)(F)F)c3)nn2)nc1 [Example 289, 5-(Difluoromethyl)-2-[[1-[3-(trifluoromethyl)phenyl]triazol-4-yl]methoxy]pyrimidine] — 3.4-fold higher, 0.037 µM
- Cc1cnc(OCc2cn(-c3cccc(C(F)(F)F)c3)nn2)nc1C [Example 290, 4,5-Dimethyl-2-[[1-[3-(trifluoromethyl)phenyl]triazol-4-yl]methoxy]pyrimidine] — 1.6-fold lower, 0.007 µM
- Cc1nc(OCc2cn(-c3cccc(C(F)(F)F)c3)nn2)ncc1Cl [Example 291, 5-Chloro-4-methyl-2-[[1-[3-(trifluoromethyl)phenyl]triazol-4-yl]methoxy]pyrimidine] — within 1.5-fold, 0.009 µM
- CC(F)(F)c1cccc(-n2cc(COc3ncccn3)nn2)c1 [Example 292, 2-[[1-[3-(1,1-Difluoroethyl)phenyl]triazol-4-yl]methoxy]pyrimidine] — 9.5-fold higher, 0.105 µM
- CC(F)(F)c1cccc(-n2cc(COc3ncc(Br)cn3)nn2)c1 [Example 293, 5-Bromo-2-[[1-[3-(1,1-difluoroethyl)phenyl]triazol-4-yl]methoxy]pyrimidine] — 3.5-fold higher, 0.039 µM
- CC(F)(F)c1cccc(-n2cc(COc3ncc(Cl)cn3)nn2)c1 [Example 294, 5-Chloro-2-[[1-[3-(1,1-difluoroethyl)phenyl]triazol-4-yl]methoxy]pyrimidine] — 3.7-fold lower, 0.003 µM
- CC(F)(F)c1cccc(-n2cc(COc3ncc(F)cn3)nn2)c1 [Example 295, 2-[[1-[3-(1,1-Difluoroethyl)phenyl]triazol-4-yl]methoxy]-5-fluoro-pyrimidine] — 5.5-fold higher, 0.061 µM
- Cc1ccnc(OCc2cn(-c3cccc(C(C)(F)F)c3)nn2)n1 [Example 296, 2-[[1-[3-(1,1-Difluoroethyl)phenyl]triazol-4-yl]methoxy]-4-methyl-pyrimidine] — within 1.5-fold, 0.012 µM
- Cc1cnc(OCc2cn(-c3cccc(C(C)(F)F)c3)nn2)nc1 [Example 297, 2-[[1-[3-(1,1-Difluoroethyl)phenyl]triazol-4-yl]methoxy]-5-methyl-pyrimidine] — 2.2-fold lower, 0.005 µM
- CC(F)(F)c1cccc(-n2cc(COc3ncc(CO)cn3)nn2)c1 [Example 298, [2-[[1-[3-(1,1-Difluoroethyl)phenyl]triazol-4-yl]methoxy]pyrimidin-5-yl]methanol] — 3.1-fold higher, 0.034 µM
- CC(F)(F)c1cccc(-n2cc(COc3nccc(CO)n3)nn2)c1 [Example 299, [2-[[1-[3-(1,1-Difluoroethyl)phenyl]triazol-4-yl]methoxy]pyrimidin-4-yl]methanol] — 4.5-fold higher, 0.049 µM
- COCc1ccnc(OCc2cn(-c3cccc(C(C)(F)F)c3)nn2)n1 [Example 300, 2-[[1-[3-(1,1-Difluoroethyl)phenyl]triazol-4-yl]methoxy]-4-(methoxymethyl)pyrimidine] — within 1.5-fold, 0.008 µM
- CC(C)(O)c1cnc(OCc2cn(-c3cccc(C(C)(F)F)c3)nn2)nc1 [Example 301, 2-[2-[[1-[3-(1,1-Difluoroethyl)phenyl]triazol-4-yl]methoxy]pyrimidin-5-yl]propan-2-ol] — 11-fold higher, 0.119 µM
- CC(F)(F)c1cccc(-n2cc(COc3ncc(C(F)F)cn3)nn2)c1 [Example 302, 2-[[1-[3-(1,1-Difluoroethyl)phenyl]triazol-4-yl]methoxy]-5-(difluoromethyl)pyrimidine] — 5.5-fold lower, 0.002 µM
- CC(F)(F)c1cccc(-n2cc(COc3nccc(C(F)F)n3)nn2)c1 [Example 303, 2-[[1-[3-(1,1-Difluoroethyl)phenyl]triazol-4-yl]methoxy]-4-(difluoromethyl)pyrimidine] — 7.7-fold higher, 0.085 µM
- CC(F)(F)c1cccc(-n2cc(COc3nccc(C(F)(F)F)n3)nn2)c1 [Example 304, 2-[[1-[3-(1,1-Difluoroethyl)phenyl]triazol-4-yl]methoxy]-4-(trifluoromethyl)pyrimidine] — 65-fold higher, 0.711 µM
- COc1cnc(OCc2cn(-c3cccc(C(C)(F)F)c3)nn2)nc1 [Example 306, 2-[[1-[3-(1,1-Difluoroethyl)phenyl]triazol-4-yl]methoxy]-5-methoxy-pyrimidine] — 3.7-fold lower, 0.003 µM
- COc1ccnc(OCc2cn(-c3cccc(C(C)(F)F)c3)nn2)n1 [Example 307, 2-[[1-[3-(1,1-Difluoroethyl)phenyl]triazol-4-yl]methoxy]-4-methoxy-pyrimidine] — 3-fold higher, 0.033 µM
- CC(F)(F)c1cccc(-n2cc(COc3ncc(OC(F)F)cn3)nn2)c1 [Example 308, 2-[[1-[3-(1,1-Difluoroethyl)phenyl]triazol-4-yl]methoxy]-5-(difluoromethoxy)pyrimidine] — 3.7-fold lower, 0.003 µM
- CC(=O)c1cnc(OCc2cn(-c3cccc(C(C)(F)F)c3)nn2)nc1 [Example 309, 1-[2-[[1-[3-(1,1-Difluoroethyl)phenyl]triazol-4-yl]methoxy]pyrimidin-5-yl]ethanone] — within 1.5-fold, 0.01 µM
- Cc1nc(OCc2cn(-c3cccc(C(C)(F)F)c3)nn2)ncc1Cl [Example 312, 5-Chloro-2-[[1-[3-(1,1-difluoroethyl)phenyl]triazol-4-yl]methoxy]-4-methyl-pyrimidine] — 2.8-fold lower, 0.004 µM
- Cc1nc(OCc2cn(-c3cccc(C(C)(F)F)c3)nn2)ncc1F [Example 313, 2-[[1-[3-(1,1-Difluoroethyl)phenyl]triazol-4-yl]methoxy]-5-fluoro-4-methyl-pyrimidine] — 2.2-fold lower, 0.005 µM
- Cc1cnc(OCc2cn(-c3cccc(C(C)(F)F)c3)nn2)nc1N [Example 314, 2-[[1-[3-(1,1-Difluoroethyl)phenyl]triazol-4-yl]methoxy]-5-methyl-pyrimidin-4-amine] — 1.8-fold lower, 0.006 µM
